Source: patent US20250241898A1, “Topical Benzimidazole Formulations and Methods for Use in Treating Inflammatory Dermatoses” (JJR&D, LLC, priority 2022, published 2025)

Test system: CTLL-2 (ATCC TIB-214) cytotoxic T lymphocytes
Assay: In vitro screening platform for immunomodulation, CTLL-2 T-lymphocyte density
Type: cell-based
Description: An in vitro screening platform for immunomodulation was used to evaluate mebenzadole for efficacy. CTLL-2 (ATCC® TIB-214™) are cytotoxic T lymphocytes that were purchased and cultured according to ATCC protocol. […] The maximum volume added to the 1 mL of each of the 12 wells was 10 μL for the highest test concentration of mebenzadole and the control.

Compound: COC(=O)Nc1nc2ccc(C(=O)c3ccccc3)cc2[nH]1 [mebendazole, methyl 5-benzoylbenzimidazole-2-carbamate]
- effect on T-lymphocytes (FIG. 1) (CTLL-2 cell culture, 1 nM to 1 μM): dose dependently kill T-lymphocytes
- test concentration at which significant reduction of T-lymphocytes starts (CTLL-2 cell culture, mebendazole in DMSO, 1 nM, 5 nM, 500 nM and 1 μM tested vs DMSO control): 1 nM
- concentration at which significant reduction of CD+8 T cells starts, as mass concentration (in DMSO, equivalent given for 1 nM): 0.295 μg per mL
